Here are results for 16 molecules from US20240197596A1, “COMPOUNDS USEFUL AS HAIR DYES” (National University of Singapore, priority 2021, published 2024).

≈ marks a conversion by molar mass, not a printed value.

The nature of the first series: Thermodynamic solubility assay (modified shake flask, LC-MS/MS). The following applies: Milli-Q water, 25 °C, pH 7, water, thermodynamic from solid, Water Solubility, library of old series (Table 4). As to the method: The aqueous solubilities (pH=7) of these compounds were measured using the modified shake flask method and LC-MS/MS. Each hair dye was added into a 2 mL glass vial containing Milli-Q water (1 mL) to form the precipitates at 25° C. Then the mixture was subjected to a solubility-equilibrium stage. The vials were shaken at 300 rpm at 25° C. for 24 h. The precipitate was separated by centrifugation at 23,000 g for 20 min. Subsequently, 0.5 mL of supernatant was transferred into a 1 mL Eppendorf tube, and it was centrifuged again as mentioned above. The supernatant was then used for LC-MS/MS analysis.
The mass spectrometric analysis was performed by use of a AB SCIEX QTRAP 5500 tandem mass spectrometry (MS/MS) system (AB SCIEX, Framingham, MA, USA) operating in triple quadrupole positive mode (ESI+) equipped with an AB Sciex Turbo Ion Spray interface. Acquisition and analysis of data were performed with Analyst software ver. 1.4.2 (Applied Biosystems) which performed all chromatographic peak integration. For each hair dye, a standard curve consisting of four concentrations was established.
Solvent A was composed of 0.1% [v/v] formic acid in Milli-Q water while solvent B was composed of 0.1% [v/v] formic acid in acetonitrile. A mobile phase gradient pumped at 0.6 mL/min was used to elute the hair dyes from the column. The column was equilibrated for 1 min resulting in a total run time of 5 min. The injection volume was 5.0 μL for all derivatives. To prevent compound accumulation on the needle, 50% methanol in ACN was used as needle wash for 30 s per sample.
The term solubility denotes the dissolved amount per volume that the medium holds. A low value points to little dissolved substance. `CCCCCCOC(=O)c1cc(Nc2ccc(N)cc2)ccc1N` [PPD 6, reference compound]: the solubility at 24 h was 1 µg/mL (≈ 3.05 µM).

With `CCCCCCOc1cc(N)ccc1N` [PPD 4, reference compound], the solubility at 24 h is 80 µg/mL (≈ 384 µM). As for `CCCCCCOC(=O)c1cc(N)ccc1N` [PPD15, reference compound], the solubility at 24 h is 10 µg/mL (≈ 42.3 µM).

`CCCCC(CC)COc1cc(N)ccc1N` (stereo not shown) [PPD 3, reference compound] yielded a solubility at 24 h of 80 µg/mL (≈ 338 µM).

In turn, `Nc1ccc(Nc2ccc(Nc3ccc(N)cc3)cc2)cc1` [PPD 2, reference compound] came in with a solubility at 24 h of 100 µg/mL (≈ 344 µM). On the same count and under the same terms, the value for `Nc1ccc(Nc2ccc(N)cc2)cc1` [PPD 1, reference compound] was 500 µg/mL (≈ 2510 µM); that for `CCCCCCNc1ccc(Nc2ccc(N)cc2)cc1OCCCCCC` [PPD7, reference compound] was 5 µg/mL (≈ 13 µM).

Still in this series, the particulars now being: library of old series (Table 4).
With `COc1ccc(CNc2ccc(Nc3ccc(NCc4ccc(O)cc4)cc3)cc2)cc1` [PPD12, reference compound], the “Water Solubility” value is “Insoluble”.

For `Cc1ccc(CNc2ccc(Nc3ccc(Nc4ccc(N)cc4)cc3)cc2)cc1` [PPD10, reference compound], the “Water Solubility” value is “Insoluble”. The same measure, in the same setting: the value for `CCCCCCNc1ccc(N)cc1OCCCCCC` [PPD16, reference compound] was “Insoluble”; that for `Nc1ccc(Nc2ccc(Nc3ccc(Nc4ccc(N)cc4)cc3)cc2)cc1` [PPD8, reference compound] was “Insoluble”; that for `Nc1ccc(CNc2ccc(Nc3ccc(NCc4ccc([N+](=O)[O-])cc4)cc3)cc2)cc1` [PPD11, reference compound] was “Insoluble”.

With `Oc1ccc(CNc2ccc(Nc3ccc(NCc4ccc(O)cc4)cc3)cc2)cc1` [PPD14, reference compound], the “Water Solubility” value is listed as “Insoluble”. For `CCCCCCOc1cc(Nc2ccc(N)cc2)ccc1N` [PPD 5, reference compound], the “Water Solubility” value is on record as “Insoluble”.

On to `Cc1ccc(CNc2ccc(Nc3ccc(N)cc3)cc2)cc1` [PPD9, reference compound], for which the “Water Solubility” value is listed as “Insoluble”. Regarding `Cc1ccc(CNc2ccc(Nc3ccc(NCc4ccc(C)cc4)cc3)cc2)cc1` [PPD13, reference compound], the “Water Solubility” value is recorded as “Insoluble”.
